Results taken from PubChem BioAssay (NCI).
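Where inhibition never reached the appropriate level, the endpoint shown equals the highest concentration tested. Otherwise, values were interpolated linearly from a five-concentration, 48-hour dose response in 96-well plates. Here, GI50 denotes the concentration required for 50% inhibition of growth. TGI denotes the concentration required for complete inhibition of growth.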

Legend:
Experiment in all cases: NCI anticancer screen, dose series, 48 h
[1] = tested on: ACHN renal
[2] = tested on: COLO 205 colon
[3] = tested on: MOLT-4 leukemia
[4] = tested on: NCI-H226 lung
[5] = tested on: NCI-H460 lung
[6] = tested on: OVCAR-3 ovarian
[7] = tested on: OVCAR-5 ovarian
[8] = tested on: SK-MEL-28 melanoma
[9] = tested on: SN12C renal
[10] = tested on: TK-10 renal

Q: What does the source list for `Oc1ccc(N=Nc2ccc(Cl)cc2)cc1`?
A: TGI [1]: 27.7 µM; TGI [2]: 33.4 µM; TGI [3]: 51.7 µM; TGI [4]: 35.6 µM; TGI [5]: 34.2 µM; TGI [6]: 55 µM; TGI [7]: 32.2 µM; TGI [8]: 54.1 µM; TGI [9]: 31.2 µM; TGI [10]: 33.8 µM

Q: Which results are given for `COc1cc2c(cc1OCc1ccccc1)N=C[C@@H]1C/C(=C/C(=O)NCCCN3C(=O)c4cccc5cccc(c45)C3=O)CN1C2=O`?
A: GI50 [1]: 3.82 µM; TGI [1]: > 61.4 µM; GI50 [2]: 1.56 µM; TGI [2]: 4.81 µM; GI50 [3]: 0.0553 µM; TGI [3]: 63.9 µM; GI50 [4]: 2.82 µM; TGI [4]: > 100 µM; GI50 [5]: 0.603 µM; TGI [5]: 7.15 µM; GI50 [6]: 0.273 µM; TGI [6]: 3.72 µM; GI50 [7]: 0.617 µM; TGI [7]: 14.4 µM; GI50 [8]: 1.96 µM; TGI [8]: 24.8 µM; GI50 [9]: 0.346 µM; TGI [9]: 2.4 µM; GI50 [10]: 0.466 µM; TGI [10]: 3.43 µM

Q: `COc1cc(OC2OC(C)C(O)C(O)C2O)cc2oc(-c3ccc(O)cc3)c(CC=C(C)C)c(=O)c12` (stereo not given) was tested. Which GI50 [1] did it give?
A: 22 µM

Q: What about the TGI [1] of the same molecule?
A: 59.8 µM

Q: And the GI50 [2]?
A: 10 µM

Q: And the TGI [2]?
A: 22.1 µM

Q: What about the GI50 [3] of the same molecule?
A: 3.45 µM

Q: And the TGI [3]?
A: 17.7 µM

Q: What about the GI50 [4] of the same molecule?
A: 21.9 µM

Q: And the TGI [4]?
A: 69.7 µM

Q: What about the GI50 [5] of the same molecule?
A: 14.7 µM

Q: And the TGI [5]?
A: 38.7 µM

Q: And the GI50 [6]?
A: 17.1 µM

Q: What about the TGI [6] of the same molecule?
A: 66.3 µM

Q: What about the GI50 [7] of the same molecule?
A: 31.4 µM

Q: What about the TGI [7] of the same molecule?
A: 69.2 µM

Q: What about the GI50 [8] of the same molecule?
A: 23.4 µM

Q: What about the TGI [8] of the same molecule?
A: 59.6 µM

Q: What about the GI50 [9] of the same molecule?
A: 12.3 µM

Q: What about the TGI [9] of the same molecule?
A: 45.3 µM

Q: What about the GI50 [10] of the same molecule?
A: 25 µM

Q: What about the TGI [10] of the same molecule?
A: 64.7 µM

Q: What does the source list for `C=CC(=O)N1CCCC(n2nc(-c3ccc(Oc4ccccc4)cc3)c3c(N)ncnc32)C1` (stereo not given)?
A: GI50 [1]: 0.248 µM; TGI [1]: 15.8 µM; GI50 [2]: 14.1 µM; TGI [2]: 28.5 µM; GI50 [3]: 4.28 µM; TGI [3]: 25.8 µM; GI50 [4]: 3.97 µM; TGI [4]: 19.3 µM; GI50 [5]: 14.3 µM; TGI [5]: 31 µM; GI50 [6]: 6.23 µM; TGI [6]: 20.4 µM; GI50 [7]: 13.1 µM; TGI [7]: 27.6 µM; GI50 [8]: 12.3 µM; TGI [8]: 25 µM; GI50 [9]: 2.3 µM; TGI [9]: 16.1 µM; GI50 [10]: 0.0615 µM; TGI [10]: 3.94 µM
